Literature values as cited in patent publication US11590241B2, “Nanoparticle conjugated synthetic opioid prodrugs and methods of their uses” (VIRGINIA COMMONWEALTH UNIVERSITY, priority 2016, dated 2023).

What was measured:
[1] = tested on: mice; settings: parent compound, earlier data
[2] = molecular target: T1, MOR (Homo sapiens, UniProt P35372); settings: read-out: Ki (nM) μ; [3H]naloxone; data from Li et al. 2009
T1 construct: expressed in transfected cells; host or cells: CHO (Chinese hamster ovary) cells, membrane preparation
T1 sequence (P35372 whole entry): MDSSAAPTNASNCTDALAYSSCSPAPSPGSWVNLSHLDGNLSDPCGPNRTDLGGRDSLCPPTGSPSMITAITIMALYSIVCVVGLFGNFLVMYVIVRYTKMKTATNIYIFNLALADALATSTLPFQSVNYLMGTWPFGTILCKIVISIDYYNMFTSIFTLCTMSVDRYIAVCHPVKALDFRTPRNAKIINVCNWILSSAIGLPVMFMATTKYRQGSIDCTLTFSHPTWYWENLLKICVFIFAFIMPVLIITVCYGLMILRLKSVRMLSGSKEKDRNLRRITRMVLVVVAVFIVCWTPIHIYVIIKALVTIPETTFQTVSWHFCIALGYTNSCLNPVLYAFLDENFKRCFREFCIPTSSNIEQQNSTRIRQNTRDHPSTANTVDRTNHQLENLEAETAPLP

[3] = tested on: morphine-pelleted mice; settings: U.S. Pat. No. 8,980,908
[4] = molecular target: T1, MOR; settings: data from Li et al. 2009
[5] = extensive hepatic first-pass metabolism

SMILES: O=C(Cc1ccncc1)N[C@@H]1CC[C@@]2(O)[C@H]3Cc4ccc(O)c5c4[C@@]2(CCN3CC2CC2)[C@H]1O5 [NAP, 17-cyclopropylmethyl-3,14 β-dihydroxy-4,5 α-epoxy-6 β-[(4-pyridyl)acetamido]morphinan]
- AD50, blocking the antinociceptive effect of morphine [1]: 4.98 mg/kg
- agonist activity (antinociception) [1]: did not carry any significant agonist activity
- Ki [2]: 0.37 ± 0.07 nM
- intestinal motility [3]: increase intestinal motility
- MOR [35S]GTPγS Binding % Emax of DAMGO [4]: 22.7 ± 0.8%
- EC50 ([4]; read-out: MOR [35S]GTPγS Binding EC50): 1140 ± 380 pM

SMILES: C=CCN1CC[C@]23c4c5ccc(O)c4O[C@H]2C(=O)CC[C@@]3(O)[C@H]1C5 [Naloxone]
- oral bioavailability [5]: ~2%
